# Reference: PubChem BioAssay AID192 (DTP/NCI, 2004)
# Where “and” joins values, the source holds several entries; their conditions need not be identical. Equal values may be shown once. Toxic doses and inconclusive results are not listed.
# System: BDF1 mice, B16 melanoma ip, median survival T/C
# Experiment: NCI In Vivo Anticancer Drug Screen. Data for tumor model B16 Melanoma (intraperitoneal) in B6D2F1 (BDF1) mice
# Settings: endpoint: median survival time, higher = longer survival
# How it was run: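 Survival or tumor size is measured after treatment of tumor-bearing mice and normalised to the vehicle-treated control group.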
# [1] = dose: 25.0 mg/kg/injection, schedule: Q01DX009 (ip), vehicle: saline with Tween-80
# [2] = dose: 12.5 mg/kg/injection, schedule: Q01DX009 (ip), vehicle: Klucel (hydroxypropylcellulose) (HPC)
# [3] = dose: 25.0 mg/kg/injection, schedule: Q01DX009 (ip), vehicle: Klucel (hydroxypropylcellulose) (HPC)
# [4] = dose: 200.0 mg/kg/injection, schedule: Q01DX009 (ip), vehicle: Klucel (hydroxypropylcellulose) (HPC)
# [5] = dose: 100.0 mg/kg/injection, schedule: Q04DX003 (ip), vehicle: saline with Tween-80
# [6] = dose: 200.0 mg/kg/injection, schedule: Q04DX003 (ip), vehicle: saline with Tween-80
# [7] = dose: 25.0 mg/kg/injection, schedule: Q01DX009 (ip), vehicle: saline
# [8] = dose: 50.0 mg/kg/injection, schedule: Q01DX009 (ip), vehicle: saline
# [9] = dose: 100.0 mg/kg/injection, schedule: Q01DX009 (ip), vehicle: saline
# [10] = dose: 200.0 mg/kg/injection, schedule: Q01DX009 (ip), vehicle: saline
# [11] = dose: 400.0 mg/kg/injection, schedule: Q01DX009 (ip), vehicle: saline
# [12] = dose: 100.0 mg/kg/injection, schedule: Q01DX009 (ip), vehicle: Klucel (hydroxypropylcellulose) (HPC)
# [13] = dose: 50.0 mg/kg/injection, schedule: Q01DX009 (ip), vehicle: saline with Tween-80
# [14] = dose: 100.0 mg/kg/injection, schedule: Q01DX009 (ip), vehicle: saline with Tween-80
# [15] = dose: 200.0 mg/kg/injection, schedule: Q01DX009 (ip), vehicle: saline with Tween-80
# [16] = dose: 400.0 mg/kg/injection, schedule: Q01DX009 (ip), vehicle: saline with Tween-80
# [17] = dose: 400.0 mg/kg/injection, schedule: Q04DX003 (ip), vehicle: saline with Tween-80
structure (smiles),measurement,setting,value
CC1(C)N=C(N)N=C(N)N1c1ccc(OCCOc2ccc(S(=O)(=O)F)cc2)c(Cl)c1,T/C,"dose: 12.5 mg/kg/injection, schedule: Q04DX003 (ip), vehicle: saline",107 % of control
same,T/C,"dose: 25.0 mg/kg/injection, schedule: Q04DX003 (ip), vehicle: saline",121 % of control
CC/C(C)=C1\OC(=O)C(C)C(O)C(Cc2cccnc2)NC(=O)C(NC(=O)c2ncccc2O)C(C)OC1=O (stereo not drawn),T/C,"dose: 0.75 mg/kg/injection, schedule: Q01DX009 (ip), vehicle: Klucel (hydroxypropylcellulose) (HPC)",118 % of control
same,T/C,"dose: 1.5 mg/kg/injection, schedule: Q01DX009 (ip), vehicle: Klucel (hydroxypropylcellulose) (HPC)",98 % of control
same,T/C,"dose: 3.0 mg/kg/injection, schedule: Q01DX009 (ip), vehicle: Klucel (hydroxypropylcellulose) (HPC)",99 % of control
same,T/C,"dose: 6.25 mg/kg/injection, schedule: Q01DX009 (ip), vehicle: saline with Tween-80",87 % of control
same,T/C,"dose: 12.5 mg/kg/injection, schedule: Q01DX009 (ip), vehicle: saline with Tween-80",97 % of control
same,T/C,[1],96 % of control
COc1cc2cc3cc4cc(OC)c(OC)cc4c(C)[n+]3cc2cc1OC (tested in a mixture with another compound),T/C,"dose: 10.0 mg/kg/injection, schedule: Q01DX009 (ip), vehicle: Klucel (hydroxypropylcellulose) (HPC)",96 % of control
same,T/C,"dose: 20.0 mg/kg/injection, schedule: Q01DX009 (ip), vehicle: Klucel (hydroxypropylcellulose) (HPC)",95 % of control
CCCCCCCCCCC(O)CN1CCN(c2ccc(C)cc2)CC1 (stereo not drawn),T/C,[2],92 % of control
same,T/C,[3],105 % of control
same,T/C,[4],86 % of control
CC(=O)CC(=O)Nc1cc(Cl)c(NC(=O)CC(C)=O)cc1Cl,T/C,[5],88 % of control
same,T/C,[6],98 % of control
c1ccc2c(CC[n+]3cccc(C4OCCO4)c3)c[nH]c2c1,T/C,"dose: 12.5 mg/kg/injection, schedule: Q01DX009 (ip), vehicle: saline",94 % of control
same,T/C,[7],100 % of control
same,T/C,[8],100 % of control
COc1cc(C(N)=O)cc(OC)c1O,T/C,[9],115 % of control
same,T/C,[10],110 % of control
same,T/C,[11],118 % of control
OCc1ccccc1NCc1ccccc1,T/C,"dose: 100.0 mg/kg/injection, schedule: Q01DX009 (ip), vehicle: other",91 % of control and 109 % of control
same,T/C,"dose: 200.0 mg/kg/injection, schedule: Q01DX009 (ip), vehicle: other",100 % of control
same,T/C,"dose: 400.0 mg/kg/injection, schedule: Q01DX009 (ip), vehicle: other",95 % of control and 98 % of control
Cc1c(Cl)cccc1NC(=O)c1ccccc1C(=O)O,T/C,[12],100 % of control
same,T/C,[4],102 % of control
Cc1cc(=O)[nH]c(N/N=C/c2ccccc2O)n1,T/C,[3],93 % of control
same,T/C,"dose: 50.0 mg/kg/injection, schedule: Q01DX009 (ip), vehicle: Klucel (hydroxypropylcellulose) (HPC)",87 % of control
same,T/C,[12],87 % of control
same,T/C,[4],87 % of control
Cc1nnc(NS(=O)(=O)c2ccc(N=Nc3nc4[nH]c(N)nc(=S)c4[nH]3)cc2)s1,T/C,[1],112 % of control
same,T/C,[13],100 % of control
same,T/C,[14],92 % of control
NC(CC(=O)O)C(=O)OCc1ccccc1 (stereo not drawn),T/C,[7],95 % of control
same,T/C,[8],108 % of control
same,T/C,[9],114 % of control
same,T/C,[10],105 % of control
NC(=O)C1(N2CCCC2)CCN(Cc2ccccc2)CC1,T/C,"dose: 25.0 mg/kg/injection, schedule: Q04DX003 (ip), vehicle: Klucel (hydroxypropylcellulose) (HPC)",105 % of control
same,T/C,"dose: 50.0 mg/kg/injection, schedule: Q04DX003 (ip), vehicle: Klucel (hydroxypropylcellulose) (HPC)",94 % of control
same,T/C,"dose: 100.0 mg/kg/injection, schedule: Q04DX003 (ip), vehicle: Klucel (hydroxypropylcellulose) (HPC)",100 % of control
O=[N+]([O-])c1ccc2c(c1)sc1cc([N+](=O)[O-])c(Br)cc12,T/C,[13],102 % of control
same,T/C,[14],102 % of control
same,T/C,[15],100 % of control
same,T/C,[16],90 % of control
ClC(Cl)(Cl)C(N1CCN(c2ccccc2)CC1)N1CCN(c2ccccc2)CC1,T/C,[13],113 % of control
same,T/C,[14],96 % of control
same,T/C,[15],112 % of control
same,T/C,[16],91 % of control
C1CCN(CCC2CCNCC2)C1,T/C,[7],109 % of control
same,T/C,[8],90 % of control
CCC1(C)CC(=O)NC(=O)C1,T/C,"dose: 0.93 mg/kg/injection, schedule: Q01DX009 (ip), vehicle: saline",110 % of control
same,T/C,"dose: 1.87 mg/kg/injection, schedule: Q01DX009 (ip), vehicle: saline",97 % of control
same,T/C,"dose: 3.75 mg/kg/injection, schedule: Q01DX009 (ip), vehicle: saline",110 % of control
same,T/C,"dose: 7.5 mg/kg/injection, schedule: Q01DX009 (ip), vehicle: saline",107 % of control
same,T/C,"dose: 15.0 mg/kg/injection, schedule: Q01DX009 (ip), vehicle: saline",107 % of control
COc1cccc(/C=C/[N+](=O)[O-])c1,T/C,"dose: 5.0 mg/kg/injection, schedule: Q01DX009 (ip), vehicle: saline with Tween-80",98 % of control
same,T/C,"dose: 10.0 mg/kg/injection, schedule: Q01DX009 (ip), vehicle: saline with Tween-80",101 % of control
same,T/C,"dose: 20.0 mg/kg/injection, schedule: Q01DX009 (ip), vehicle: saline with Tween-80",94 % of control and 98 % of control
O=Nc1ccc2cc(O)ccc2c1O,T/C,"dose: 3.12 mg/kg/injection, schedule: Q04DX003 (ip), vehicle: Klucel (hydroxypropylcellulose) (HPC)",97 % of control
same,T/C,"dose: 6.25 mg/kg/injection, schedule: Q01DX009 (ip), vehicle: Klucel (hydroxypropylcellulose) (HPC)",95 % of control
same,T/C,"dose: 6.25 mg/kg/injection, schedule: Q04DX003 (ip), vehicle: Klucel (hydroxypropylcellulose) (HPC)",102 % of control
same,T/C,[2],109 % of control
same,T/C,"dose: 12.5 mg/kg/injection, schedule: Q04DX003 (ip), vehicle: Klucel (hydroxypropylcellulose) (HPC)",100 % of control
Cc1c(NC=O)c(=O)n(-c2ccccc2)n1C,T/C,[12],100 % of control
same,T/C,[4],100 % of control
same,T/C,"dose: 400.0 mg/kg/injection, schedule: Q01DX009 (ip), vehicle: Klucel (hydroxypropylcellulose) (HPC)",96 % of control
CC(C)C1=CC2=CCC3C(C)(C(N)=O)CCCC3(C)C2CC1CC#N (stereo not drawn),T/C,[5],102 % of control
same,T/C,[17],88 % of control
CCCCCCCCCCCCCCCCCCNC(=O)Nc1cc(C)ccc1C,T/C,"dose: 25.0 mg/kg/injection, schedule: Q01DX009 (ip), vehicle: gum acacia",100 % of control
same,T/C,"dose: 50.0 mg/kg/injection, schedule: Q01DX009 (ip), vehicle: gum acacia",93 % of control
same,T/C,"dose: 100.0 mg/kg/injection, schedule: Q01DX009 (ip), vehicle: gum acacia",107 % of control
C[C@]12CCC(=O)C=C1CC[C@@H]1[C@@H]2[C@@H](O)C[C@@]2(C)[C@H]1CC[C@]2(O)C(=O)CO,T/C,"dose: 40.0 mg/kg/injection, schedule: Q02DX009 (ip), vehicle: Klucel (hydroxypropylcellulose) (HPC)",87 % of control
same,T/C,"dose: 80.0 mg/kg/injection, schedule: Q02DX009 (ip), vehicle: Klucel (hydroxypropylcellulose) (HPC)",102 % of control
same,T/C,"dose: 160.0 mg/kg/injection, schedule: Q02DX009 (ip), vehicle: Klucel (hydroxypropylcellulose) (HPC)",92 % of control
C=C(C)C(=O)O[C@H]1CC2=C[C@@H](C[C@@]3(C)O[C@@H]3[C@H]3OC(=O)C(=C)[C@@H]31)OC2=O,T/C,"dose: 3.75 mg/kg/injection, schedule: Q01DX009 (ip), vehicle: Klucel (hydroxypropylcellulose) (HPC)",89 % of control
same,T/C,"dose: 7.5 mg/kg/injection, schedule: Q01DX009 (ip), vehicle: Klucel (hydroxypropylcellulose) (HPC)",97 % of control
same,T/C,"dose: 15.0 mg/kg/injection, schedule: Q01DX009 (ip), vehicle: Klucel (hydroxypropylcellulose) (HPC)",92 % of control
Cc1ccc(N(CCCl)CCCl)cc1NC(=O)c1ccccc1,T/C,[11],161 % of control
same,T/C,"dose: 800.0 mg/kg/injection, schedule: Q01DX009 (ip), vehicle: saline",188 % of control
CCOC(=O)C(=CN1CCCC1)C(=O)OCC,T/C,[14],102 % of control
same,T/C,[5],120 % of control
same,T/C,[15],105 % of control
same,T/C,[6],117 % of control
same,T/C,[16],91 % of control
same,T/C,[17],111 % of control
Nc1ccc(S(=O)(=O)c2ccc(NCNc3ccc(S(=O)(=O)c4ccc(N)cc4)cc3)cc2)cc1,T/C,[14],88 % of control
same,T/C,[15],92 % of control
same,T/C,[16],90 % of control
